Results published in patent US8017612B2, “Piperazine compound and use thereof as a HCV polymerase inhibitor” (priority 2006, dated 2011).

Assays:
[1] = biological target: T1, HCV polymerase (NS5B) type 1a (Hepatitis C virus genotype 1a, UniProt P26664); test: Assay of enzyme (HCV polymerase) inhibitory activity, type 1a enzyme; format: biochemical, HCV type 1a (cloned from the blood of patients); settings: HCV polymerase inhibitory activity (IC50), 1a, type 1a enzyme 1.5 μg/ml, 25° C., 60 min
T1 construct: made in house; host or cells: Escherichia coli (by the 'similar method' of the 1b enzyme)
Outline: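 NS5B Δ47 C-term His6 (type 1a, 1.5 μg/ml); substrate RNA 5 μg/ml; ATP/GTP/CTP 50 μM, UTP 2 μM + [5,6-3H]UTP; Tris pH 7.5, MgCl2 5 mM; 25° C, 60 min. TCA/pyrophosphate stop, GF/B filter, scintillation. IC50 vs no-compound control.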

[2] = biological target: T2, HCV polymerase (NS5B) type 1b (Hepatitis C virus genotype 1b, UniProt P26663); test: Assay of enzyme (HCV polymerase) inhibitory activity, type 1b enzyme; format: biochemical, HCV BK strain (type 1b); settings: HCV polymerase inhibitory activity (IC50), 1b, type 1b enzyme 0.5 μg/ml, 25° C., 60 min
T2 construct: a region encoding NS5B (J Virol 1991 March, 65(3), 1105-13, 544 amino acids after deletion of 47 amino acids on the C-terminal); 6xHis (C); made in house; host or cells: Escherichia coli
Outline: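 Rxn: NS5B 1b (BK, ΔC47, His6) 0.5 μg/ml; substrate RNA 5 μg/ml; ATP/GTP/CTP 50 μM, UTP 2 μM + [5,6-3H]UTP; 20 mM Tris pH 7.5, 5 mM MgCl2, 50 mM NaCl, 1 mM EDTA/DTT. 25 °C, 60 min. Stop with TCA/pyrophosphate, filter, scintillation count; IC50 vs. untreated.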

CC(=O)N1CCN(S(=O)(=O)c2ccc(OC(F)(F)F)cc2)[C@@H](C(=O)NCc2ccc(-c3ccccc3)s2)C1 [Example 614, (R)-4-acetyl-1-(4-trifluoromethoxy-benzenesulfonyl)-piperazine-2-carboxylic acid (5-phenyl-thiophen-2-ylmethyl)-amide] showed an IC50 [1] of 100 to 1000 nM and an IC50 [2] of 100 to 1000 nM.

Compound CCC(F)(F)c1ccc(CNC(=O)[C@H]2CN(c3cnc4cncnc4n3)CCN2S(=O)(=O)c2ccc(OC(F)(F)F)cc2)cc1 [Example 615, (R)-4-pteridin-7-yl-1-(4-trifluoromethoxy-benzenesulfonyl)-piperazine-2-carboxylic acid 4-(1,1-difluoro-propyl)-benzylamide] has an IC50 [1] of less than 100 nM and an IC50 [2] of less than 100 nM.

For CCC(F)(F)c1ccc(CNC(=O)[C@H]2CN(c3cnc4c(n3)NC(=O)OC4)CCN2S(=O)(=O)c2ccc(OC(F)(F)F)cc2)cc1 [Example 616, (R)-4-(2-oxo-1,4-dihydro-2H-pyrazino[2,3-d][1,3]oxazin-7-yl)-1-(4-trifluoromethoxy-benzenesulfonyl)-piperazine-2-carboxylic acid 4-(1,1-difluoro-propyl)-benzylamide], the IC50 [1] was less than 100 nM and the IC50 [2] was less than 100 nM.

For CC(C)(C)c1ccc(CNC(=O)[C@H]2CN(c3cnc4cncnc4n3)CCN2S(=O)(=O)c2ccc(OC(F)(F)F)cc2)cc1 [Example 617, (R)-4-pteridin-7-yl-1-(4-trifluoromethoxy-benzenesulfonyl)-piperazine-2-carboxylic acid 4-tert-butyl-benzylamide], the IC50 [1] was less than 100 nM and the IC50 [2] was less than 100 nM.

With CC(C)(C)c1ccc(CNC(=O)[C@H]2CN(c3nc4nn[nH]c(=O)c4s3)CCN2S(=O)(=O)c2ccc(OC(F)(F)F)cc2)cc1 [Example 618, (R)-4-(4-oxo-3,4-dihydro-thiazolo[4,5-d][1,2,3]triazin-6-yl)-1-(4-trifluoromethoxy-benzenesulfonyl)-piperazine-2-carboxylic acid 4-tert-butyl-benzylamide] the IC50 [1] was less than 100 nM and the IC50 [2] was less than 100 nM.

CCN(C)c1ccc(CNC(=O)[C@H]2CN(c3cnc4cncnc4n3)CCN2S(=O)(=O)c2ccc(OC(F)(F)F)cc2)cc1 [Example 619, (R)-4-pteridin-7-yl-1-(4-trifluoromethoxy-benzenesulfonyl)-piperazine-2-carboxylic acid 4-(ethyl-methyl-amino)-benzylamide] gave an IC50 [1] of less than 100 nM and an IC50 [2] of less than 100 nM.

Work on CC(C)(C)c1ccc(CNC(=O)[C@H]2CN(c3ccc(C(=O)O)nc3)CCN2S(=O)(=O)c2ccc(OC(F)(F)F)cc2)cc1 [Example 620, 5-[(R)-3-(4-tert-butyl-benzylcarbamoyl)-4-(4-trifluoromethoxy-benzenesulfonyl)-piperazin-1-yl]-pyridine-2-carboxylic acid] yielded an IC50 [1] of less than 100 nM and an IC50 [2] of less than 100 nM.

CC(=O)N1CCN(S(=O)(=O)c2ccc(OC(F)(F)F)cc2)[C@@H](C(=O)NCC2(O)CCCCC2)C1 [Example 621, (R)-4-acetyl-1-(4-trifluoromethoxy-benzenesulfonyl)-piperazine-2-carboxylic acid (1-hydroxy-cyclohexylmethyl)-amide] was tested, and the IC50 [1] was greater than 1000 nM and the IC50 [2] was greater than 1000 nM.

CC(=O)N1CCN(S(=O)(=O)c2ccc(OC(F)(F)F)cc2)[C@@H](C(=O)NCc2ccc(-c3cccs3)s2)C1 [Example 622, (R)-4-acetyl-1-(4-trifluoromethoxy-benzenesulfonyl)-piperazine-2-carboxylic acid ([2,2′]bithiophenyl-5-ylmethyl)-amide] showed an IC50 [1] of less than 100 nM and an IC50 [2] of 100 to 1000 nM.

Compound CC(=O)N1CCN(S(=O)(=O)c2ccc(OC(F)(F)F)cc2)[C@@H](C(=O)NCc2ccc(-c3cccs3)cc2)C1 [Example 623, (R)-4-acetyl-1-(4-trifluoromethoxy-benzenesulfonyl)-piperazine-2-carboxylic acid 4-thiophen-2-yl-benzylamide] has an IC50 [1] of less than 100 nM and an IC50 [2] of 100 to 1000 nM.
